Experimental data reported in the NIST ThermoML archive (doi:10.1016/j.jct.2019.04.009).
Numbers after ± are expanded uncertainties.

Test: mn = molality of the nth substance listed, in mol/kg
Conditions: Liquid, Vibrating tube method

NC(N)=O [urea] + O
298.15 K, 100 kPa
Conditions	mass density [kg/m3]
m1 = 0.1001	998.63 ± 0.11
m1 = 0.1999	1000.2 ± 0.11
m1 = 0.3	1001.75 ± 0.11
m1 = 0.4	1003.29 ± 0.11
m1 = 0.5001	1004.81 ± 0.11

NC(N)=O [urea] + OCCO
mass density [kg/m3], 99.6 kPa
Conditions	288.15 K	298.15 K	308.15 K	318.15 K	328.15 K
m1 = 0.0551	1117.63 ± 0.12	1110.69 ± 0.12	1103.68 ± 0.12	1096.6 ± 0.12	1089.43 ± 0.12
m1 = 0.1487	1118.67 ± 0.12	1111.72 ± 0.12	1104.7 ± 0.12	1097.61 ± 0.12	1090.44 ± 0.12
m1 = 0.3264	1120.61 ± 0.13	1113.63 ± 0.12	1106.59 ± 0.12	1099.51 ± 0.12	1092.34 ± 0.12
m1 = 0.446	1121.88 ± 0.13	1114.89 ± 0.12	1107.84 ± 0.12	1100.77 ± 0.12	1093.59 ± 0.12
m1 = 0.495	1122.39 ± 0.13	1115.41 ± 0.12	1108.35 ± 0.12	1101.28 ± 0.12	1094.1 ± 0.12
m1 = 0.6616	1124.11 ± 0.13	1117.13 ± 0.12	1110.06 ± 0.12	1103 ± 0.12	1095.82 ± 0.12
m1 = 0.8791	1126.28 ± 0.13	1119.33 ± 0.12	1112.26 ± 0.12	1105.19 ± 0.12	1098.01 ± 0.12
m1 = 1.072	1128.14 ± 0.13	1121.24 ± 0.13	1114.15 ± 0.12	1107.09 ± 0.12	1099.92 ± 0.12
m1 = 1.208	1129.41 ± 0.13	1122.55 ± 0.13	1115.46 ± 0.12	1108.4 ± 0.12	1101.23 ± 0.12
m1 = 1.357	1130.76 ± 0.13	1123.96 ± 0.13	1116.88 ± 0.12	1109.83 ± 0.12	1102.66 ± 0.12
m1 = 1.523	1132.23 ± 0.13	1125.51 ± 0.13	1118.42 ± 0.12	1111.4 ± 0.12	1104.22 ± 0.12
